Measurements: ChEMBL document CHEMBL3608269, “Triazole-Linked Glycolipids Enhance the Susceptibility of MRSA to β-Lactam Antibiotics” (ACS Med Chem Lett, 2015)
≈ marks a conversion by molar mass, not a printed value. Calls of active or inactive are those of the source. The calls are words filed in the database; no cut-off is given here.

What was measured:
Staphylococcus aureus [1] = test: Potentiation of oxacillin-mediated antibacterial activity against methicillin-resistant Staphylococcus aureus ATCC 43300 at 32 ug/ml after 20 to 24 hrs by CLSI method; format: functional
Staphylococcus aureus [2] = test: Antibacterial activity against methicillin-resistant Staphylococcus aureus ATCC 43300 after 20 to 24 hrs by CLSI method; format: functional
Staphylococcus aureus [3] = test: Antibacterial activity against methicillin-resistant Staphylococcus aureus R50 clinical isolate after 20 to 24 hrs by CLSI method; format: functional
Staphylococcus aureus [4] = test: Antibacterial activity against methicillin-resistant Staphylococcus aureus R53 clinical isolate after 20 to 24 hrs by CLSI method; format: functional
Staphylococcus aureus [5] = test: Antibacterial activity against methicillin-resistant Staphylococcus aureus R302 clinical isolate after 20 to 24 hrs by CLSI method; format: functional
Staphylococcus aureus [6] = test: Antibacterial activity against methicillin-resistant Staphylococcus aureus R314 clinical isolate after 20 to 24 hrs by CLSI method; format: functional
Staphylococcus aureus [7] = test: Antibacterial activity against methicillin-resistant Staphylococcus aureus R49 clinical isolate after 20 to 24 hrs by CLSI method; format: functional
Staphylococcus aureus [8] = test: Antibacterial activity against methicillin-resistant Staphylococcus aureus R16 clinical isolate after 20 to 24 hrs by CLSI method; format: functional
Staphylococcus aureus [9] = test: Antibacterial activity against methicillin-resistant Staphylococcus aureus R308 clinical isolate after 20 to 24 hrs by CLSI method; format: functional
Staphylococcus aureus [10] = test: Antibacterial activity against methicillin-resistant Staphylococcus aureus ATCC 43300 assessed as growth inhibition at 2 ug/ml after 24 hrs by Epsilometer test; format: functional, organism-based
Staphylococcus aureus [11] = test: Antibacterial activity against methicillin-resistant Staphylococcus aureus R15 clinical isolate after 20 to 24 hrs by CLSI method; format: functional
Staphylococcus aureus [12] = test: Antibacterial activity against methicillin-resistant Staphylococcus aureus R304 clinical isolate after 20 to 24 hrs by CLSI method; format: functional
Staphylococcus aureus [13] = test: Antibacterial activity against methicillin-resistant Staphylococcus aureus R313 clinical isolate after 20 to 24 hrs by CLSI method; format: functional
Staphylococcus aureus [14] = test: Antibacterial activity against methicillin-resistant Staphylococcus aureus ATCC 43300 assessed as change in bacterial surface at 2 ug/ml after 4 hrs by scanning electron microscopic analysis; format: functional, organism-based
Staphylococcus aureus [15] = test: Downregulation of mecA mRNA expression in methicillin-resistant Staphylococcus aureus ATCC 43300 at 2 ug/ml after 4 hrs by RT-PCR analysis; format: functional, organism-based
Staphylococcus aureus [16] = test: Antibacterial activity against methicillin-resistant Staphylococcus aureus R306 clinical isolate after 20 to 24 hrs by CLSI method; format: functional
Staphylococcus aureus [17] = test: Antibacterial activity against methicillin-resistant Staphylococcus aureus ATCC 43300 assessed as growth inhibition at 2 ug/ml measured up to 24 hrs by time kill assay; format: functional, organism-based
Staphylococcus aureus [18] = test: Antibacterial activity against methicillin-resistant Staphylococcus aureus R36 clinical isolate after 20 to 24 hrs by CLSI method; format: functional
Staphylococcus aureus [19] = test: Potentiation of oxacillin-mediated antibacterial activity against methicillin-resistant Staphylococcus aureus ATCC 43300 assessed as decrease in oxacillin MIC at 32 ug/ml after 20 to 24 hrs by CLSI method relative to control; format: functional

Row | SMILES | MIC (Staphylococcus aureus [1]) [µg/mL] | MIC (Staphylococcus aureus [2]) [µg/mL] | other results
1 | CCCCCCCCO [OCTANOL] | > 32 | > 256 | –
2 | Cc1onc(-c2ccccc2)c1C(=O)N[C@@H]1C(=O)N2[C@@H]1SC(C)(C)[C@@H]2C(=O)O [OXACILLIN] | – | 64 (≈ 159 µM) | MIC (Staphylococcus aureus [3]): 8 µg/mL (≈ 19.9 µM); MIC (Staphylococcus aureus [4]): 8 µg/mL (≈ 19.9 µM); MIC (Staphylococcus aureus [5]): 512 µg/mL (≈ 1280 µM); MIC (Staphylococcus aureus [6]): 512 µg/mL (≈ 1280 µM); MIC (Staphylococcus aureus [7]): 8 µg/mL (≈ 19.9 µM); MIC (Staphylococcus aureus [8]): ≥ 256 µg/mL; MIC (Staphylococcus aureus [9]): 1020 µg/mL (≈ 2550 µM); growth inhibition (GI) (Staphylococcus aureus [10]): inactive; MIC (Staphylococcus aureus [11]): 256 µg/mL (≈ 638 µM); MIC (Staphylococcus aureus [12]): 512 µg/mL (≈ 1280 µM); MIC (Staphylococcus aureus [13]): 16 µg/mL (≈ 39.9 µM); Activity (Staphylococcus aureus [14]): inactive; Activity (Staphylococcus aureus [15]): inactive; MIC (Staphylococcus aureus [16]): 512 µg/mL (≈ 1280 µM); growth inhibition (GI) (Staphylococcus aureus [17]): inactive; MIC (Staphylococcus aureus [18]): 128 µg/mL (≈ 319 µM)
3 | CCCCCCCCCCCCOCc1cn([C@@H]2O[C@H](CO)[C@@H](O)[C@H](O)[C@@H]2O)nn1 | 4 | 256 (≈ 596 µM) | fold change (FC) (Staphylococcus aureus [19]): 64
4 | CCCCCCCCCCCCCCCCO[C@@H]1O[C@H](CO)[C@@H](O)[C@H](O)[C@H]1O | > 32 | > 256 | –
5 | CCCCCCCCCCCCCCO[C@@H]1O[C@H](CO)[C@@H](O)[C@H](O)[C@H]1O | > 32 | > 256 | –
6 | CCCCCCCCCCCCCCCCOCc1cn([C@@H]2O[C@H](CO)[C@H](O)[C@H](O)[C@H]2O)nn1 | 16 | 256 (≈ 527 µM) | fold change (FC) (Staphylococcus aureus [19]): 16
7 | CCCCCCCCCCCCCCOCc1cn([C@@H]2O[C@H](CO)[C@H](O)[C@H](O)[C@H]2O)nn1 | 8 | 256 (≈ 559 µM) | fold change (FC) (Staphylococcus aureus [19]): 32
8 | CCCCCCCCCCCCCCCCCCO [CETOSTEARYL ALCOHOL] | > 32 | > 256 | –
9 | CCCCCCCCCCCCCCCCO [CETYL ALCOHOL] | > 32 | > 256 | –
10 | CCCCCCCCCCCCO [DODECANOL] | > 32 | > 256 | –
11 | CCCCCCCCCCO [DECANOL] | > 32 | > 256 | –
12 | CCCCCCCCCCCCCCO [MYRISTYL ALCOHOL] | > 32 | > 256 | –
13 | CCCCCCO [1-HEXANOL] | > 32 | > 256 | –
14 | CCCCCCCCCCCCCCOCc1cn([C@@H]2O[C@H](CO)[C@@H](O)[C@H](O)[C@H]2O)nn1 | 4 | 256 (≈ 559 µM) | fold change (FC) (Staphylococcus aureus [19]): 64
